This note sets out measurements from patent US12037340B2, “Pentacyclic derivatives as Zika virus inhibitors” (Gilead Sciences, Inc., priority 2021, dated 2024).

Each structure is given as a SMILES string.

The first assay deals with ZIKV. Kind of assay: microbe, parasite or virus in culture. Format: cell-based, Zika virus. The following applies: 48 hrs.
In general, EC50 refers to the concentration at which the effect is half-maximal. A higher EC50 goes with a less potent agent. Take `COC(=O)N[C@H](C(=O)N1CCC[C@H]1c1nc(Cl)c(-c2ccc3c(c2)COc2cc4c(ccc5nc([C@@H]6CCCN6C(=O)[C@@H](NC(=O)OC)C(C)(C)C(F)(F)F)[nH]c54)cc2-3)[nH]1)C(C)(C)C(F)(F)F` [Compound 29, methyl ((S)-1-((S)-2-(4-chloro-5-(2-((S)-1-((S)-4,4,4-trifluoro-2-((methoxycarbonyl)amino)-3,3-dimethylbutanoyl)pyrrolidin-2-yl)-1,11-dihydroisochromeno[4′,3′:6,7]naphtho[1,2-d]imidazol-9-yl)-1H-imidazol-2-yl)pyrrolidin-l-yl)-4,4,4-trifluoro-3,3-dimethyl-1-oxobutan-2-yl)carbamate]: a half-maximal response (EC50) required 0.0114 µM. That is a double-digit nanomolar value.
`COC(=O)N[C@H](C(=O)N1CC2(CC2)C[C@H]1c1nc(Cl)c(-c2ccc3c(c2)COc2cc4c(ccc5nc([C@@H]6CC7(CC7)CN6C(=O)[C@@H](NC(=O)OC)C(C)(C)C(F)(F)F)[nH]c54)cc2-3)[nH]1)C(C)(C)C(F)(F)F` [Compound 4, methyl ((S)-1-((S)-6-(4-chloro-5-(2-((S)-5-((S)-4,4,4-trifluoro-2-((methoxycarbonyl)amino)-3,3-dimethylbutanoyl)-5-azaspiro[2.4]heptan-6-yl)-1,11-dihydroisochromeno[4′,3′:6,7]naphtho[1,2-d]imidazol-9-yl)-1H-imidazol-2-yl)-5-azaspiro[2.4]heptan-5-yl)-4,4,4-trilluoro-3,3-dimethyl-1-oxobutan-2-yl)carbamate]: the EC50 was 0.0087 µM. The EC50 values of the last two molecules are within 1.5-fold of each other.
Same read-out and setting: for `COC(=O)N[C@H](C(=O)N1[C@H](c2nc(Cl)c(-c3ccc4c(c3)COc3cc5c(ccc6nc([C@@H]7C[C@@H]8CCC[C@@H]8N7C(=O)[C@@H](NC(=O)OC)C(C)C)[nH]c65)cc3-4)[nH]2)C[C@@H]2CCC[C@@H]21)C(C)C` [Compound 34, methyl ((S)-1-((2S,3aS,6aS)-2-(4-chloro-5-(2-((2S,3aS,6aS)-1-((methoxycarbonyl)-L-valyl)octahydrocyclopenta[b]pyrrol-2-yl)-1,11-dihydroisochromeno[4′,3′:6,7]naphtho[1,2-d]imidazol-9-yl)-1H-imidazol-2-yl)hexahydrocyclopenta[b]pyrrol-l(2H)-yl)-3-methyl-1-oxobutan-2-yl)carbamate] the value was 0.0306 µM.

Still in this assay, the particulars now being: Zika virus, Huh-7; 48 hrs.
`COC(=O)N[C@H](C(=O)N1[C@@H](C)CC[C@H]1c1nc(Cl)c(-c2ccc3c(c2)COc2cc4c(ccc5nc([C@@H]6CC[C@H](C)N6C(=O)[C@@H](NC(=O)OC)C(C)(C)C)[nH]c54)cc2-3)[nH]1)C(C)(C)C` [Compound 23, methyl ((S)-1-((2S,5S)-2-(4-chloro-5-(2-((2S,5S)-1-((S)-2-((methoxycarbonyl)amino)-3,3-dimethylbutanoyl)-5-methylpyrrolidin-2-yl)-1,11-dihydroisochromeno[4′,3′:6,7]naphtho[1,2-d]imidazol-9-yl)-1H-imidazol-2-yl)-5-methylpyrrolidin-1-yl)-3,3-dimethyl-1-oxobutan-2-yl)carbamate] returned an EC50 of 0.0094 µM. This lies in the single-digit nanomolar range.
For the molecule `COC(=O)N[C@H](C(=O)N1[C@@H](C)CC[C@H]1c1nc(C2CC2)c(-c2ccc3c(c2)COc2cc4c(ccc5nc([C@@H]6CC[C@H](C)N6C(=O)[C@@H](NC(=O)OC)C(C)C)[nH]c54)cc2-3)[nH]1)C(C)C` [Compound 38, methyl ((S)-1-((2S,5S)-2-(4-cyclopropyl-5-(2-((2S,5S)-1-((methoxycarbonyl)-L-valyl)-5-methylpyrrolidin-2-yl)-1,11-dihydroisochromeno[4′,3′:6,7]naphtho[1,2-d]imidazol-9-yl)-1H-imidazol-2-yl)-5-methylpyrrolidin-1-yl)-3-methyl-1-oxobutan-2-yl)carbamate], the EC50 came out at 0.0259 µM.
Still for that read-out and setting: for `CC[C@@H](C)[C@H](NC(=O)OC)C(=O)N1[C@@H](C)CC[C@H]1c1nc(Cl)c(-c2ccc3c(c2)COc2cc4c(ccc5nc([C@@H]6CC[C@H](C)N6C(=O)[C@@H](NC(=O)OC)[C@H](C)CC)[nH]c54)cc2-3)[nH]1` [Compound 25, methyl ((2S,3R)-1-((2S,5S)-2-(4-chloro-5-(2-((2S,5S)-1-((methoxycarbonyl)-L-alloisoleucyl)-5-methylpyrrolidin-2-yl)-1,11-dihydroisochromeno[4′,3′:6,7]naphtho[1,2-d]imidazol-9-yl)-1H-imidazol-2-yl)-5-methylpyrrolidin-1-yl)-3-methyl-1-oxopentan-2-yl)carbamate] the value was 0.0083 µM; for `CC[C@H](C)[C@H](NC(=O)OC)C(=O)N1C[C@@H](COC)C[C@H]1c1nc(C2CC2)c(-c2ccc3c(c2)COc2cc4c(ccc5nc([C@@H]6CC[C@H](C)N6C(=O)[C@@H](NC(=O)OC)C(C)C)[nH]c54)cc2-3)[nH]1` [Compound 18, methyl ((S)-1-((2S,5S)-2-(9-(4-cyclopropyl-2-((2S,4S)-1-((methoxycarbonyl)-L-isoleucyl)-4-(methoxymethyl)pyrrolidin-2-yl)-1H-imidazol-5-yl)-1,11-dihydroisochromeno[4′,3′:6,7]naphtho[1,2-d]imidazol-2-yl)-5-methylpyrrolidin-1-yl)-3-methyl-1-oxobutan-2-yl)carbamate], 0.0077 µM; for `CC[C@H]1CC[C@@H](c2nc3ccc4cc5c(cc4c3[nH]2)OCc2cc(-c3[nH]c([C@@H]4CC[C@H](C)N4C(=O)[C@@H](NC(=O)OC)C(C)C)nc3Cl)ccc2-5)N1C(=O)[C@@H](NC(=O)OC)C1CCOCC1` [Compound 12, methyl ((S)-2-((2S,5S)-2-(9-(4-chloro-2-((2S,5S)-1-((methoxycarbonyl)-L-valyl)-5-methylpyrrolidin-2-yl)-1H-imidazol-5-yl)-1,11-dihydroisochromeno[4′,3′:6,7]naphtho[1,2-d]imidazol-2-yl)-5-ethylpyrrolidin-1-yl)-2-oxo-1-(tetrahydro-2H-pyran-4-yl)ethyl)carbamate], 0.0121 µM.
For the molecule `COC(=O)N[C@H](C(=O)N1[C@@H](C)CC[C@H]1c1nc(Cl)c(-c2ccc3c(c2)COc2cc4c(ccc5nc([C@@H]6CC[C@H](C)N6C(=O)[C@@H](NC(=O)OC)C(C)(C)C(F)(F)F)[nH]c54)cc2-3)[nH]1)C(C)(C)C(F)(F)F` [Compound 24, methyl ((S)-1-((2S,5S)-2-(4-chloro-5-(2-((2S,5S)-5-methyl-1-((S)-4,4,4-trifluoro-2-((methoxycarbonyl)amino)-3,3-dimethylbutanoyl)pyrrolidin-2-yl)-1,11-dihydroisochromeno[4′,3′:6,7]naphtho[1,2-d]imidazol-9-yl)-1H-imidazol-2-yl)-5-methylpyrrolidin-1-yl)-4,4,4-trifluoro-3,3-dimethyl-1-oxobutan-2-yl)carbamate], the response was half-maximal at 0.0042 µM (EC50). This EC50 is about 2.9-fold lower than that of the molecule before.
Molecule `COC(=O)N[C@H](C(=O)N1CCC[C@H]1c1nc(Cl)c(-c2ccc3c(c2)COc2cc4c(ccc5nc([C@@H]6CCCN6C(=O)[C@@H](NC(=O)OC)C(C)C)[nH]c54)cc2-3)[nH]1)C(C)C` [Compound 26, methyl ((S)-1-((S)-2-(4-chloro-5-(2-((S)-1-((methoxycarbonyl)-L-valyl)pyrrolidin-2-yl)-1,11-dihydroisochromeno[4′,3′:6,7]naphtho[1,2-d]imidazol-9-yl)-1H-imidazol-2-yl)pyrrolidin-1-yl)-3-methyl-1-oxobutan-2-yl)carbamate] came in with an EC50 of 0.0854 µM.
